# Entries after “also recorded” stand apart in the source; their conditions may differ.
# How the values were obtained:
# [1] = In vitro EDTA challenge study; format: physicochemical; settings: for % Intact of [^89Zr]Zr-Complex (n = 3): 37 °C, radio-ITLC
# Protocol: The solutions (n = 3) were incubated at 37 °C for 7 days in a thermomixer. Samples were analyzed at 0, 1, 3, 5, and 7 days post administration to EDTA using radio-TLC, Varian ITLC-SA strips, 50 mM EDTA (pH 5) as the mobile phase, and gamma counting. All studies were performed in triplicate.
# [2] = Biodistribution studies in non-tumor-bearing, normal mice; format: in vivo, female NIH Swiss mice; settings: tail vein, n = 6
# Protocol: Female NIH Swiss mice (6–8 weeks old) were purchased from Inotiv, Lafayette, IN, USA. All animals were acclimated to a 12 h light/dark cycle and received food and water ad libitum for 5 days before any manipulations were performed. All animals were checked by veterinary staff daily to ensure well-being and proper environment and to monitor for signs of distress. Clinical signs of distress in laboratory rodents include decreased activity, pilo-erection, un-groomed appearance, excessive licking and scratching, self-mutilation, abnormal stance, hunched appearance, rapid or shallow respiration, grunting, dilated pupils, aggressiveness towards handler, high-pitched vocalizations, change in feeding activity, and attempts to separate from group. In the event of clinical distress, animals were euthanized after consulting the on-call veterinarian. To minimize suffering during the tail vain injection, animals were kept under deep isoflurane anesthesia. At the end point of the study, animals were anesthetized with isoflurane and were euthanized by cervical dislocation, which is consistent with the recommendations of the American Veterinary Medical Association Guidelines on Euthanasia.
# Biodistribution studies were conducted using a modified literature procedure. Briefly, female NIH Swiss mice (6–8 weeks old, n = 6/cohort; 30 animals total) were injected with [^89Zr]Zr-DOTMA (0.55 MBq (15 μCi)/mouse) via the tail vein and sacrificed at 2, 4, 24, 48, and 72 h p.i. Organs and tissues of interest were excised, weighed, and counted on a gamma counter. The percent injected dose per gram (%ID/g) was calculated by comparison to a weighed, counted standard for each group.
compound,measurement,setting,value
CC(C(=O)[O-])N1CCN(C(C)C(=O)[O-])CCN(C(C)C(=O)[O-])CCN(C(C)C(=O)[O-])CC1.[89Zr+4] (stereo not shown) [[^89Zr]Zr-DOTMA],stability to excess EDTA challenge (in words),"[1]; 1000-fold excess EDTA, pH 5 or pH 7, seven-day time course",inert; also recorded: stable
same,% Intact of [^89Zr]Zr-Complex (n = 3),"[1]; EDTA 100-fold, pH 5.0, 0 h",≥99.99%
same,% Intact of [^89Zr]Zr-Complex (n = 3),"[1]; EDTA 100-fold, pH 5.0, 1 d",≥99.99%
same,% Intact of [^89Zr]Zr-Complex (n = 3),"[1]; EDTA 100-fold, pH 5.0, 3 d",≥99.99%
same,% Intact of [^89Zr]Zr-Complex (n = 3),"[1]; EDTA 100-fold, pH 5.0, 5 d",≥99.99%
same,% Intact of [^89Zr]Zr-Complex (n = 3),"[1]; EDTA 100-fold, pH 5.0, 7 d",≥99.99%
same,% Intact of [^89Zr]Zr-Complex (n = 3),"[1]; EDTA 100-fold, pH 7.0, 0 h",≥99.99%
same,% Intact of [^89Zr]Zr-Complex (n = 3),"[1]; EDTA 100-fold, pH 7.0, 1 d",≥99.99%
same,% Intact of [^89Zr]Zr-Complex (n = 3),"[1]; EDTA 100-fold, pH 7.0, 3 d",≥99.99%
same,% Intact of [^89Zr]Zr-Complex (n = 3),"[1]; EDTA 100-fold, pH 7.0, 5 d",≥99.99%
same,% Intact of [^89Zr]Zr-Complex (n = 3),"[1]; EDTA 100-fold, pH 7.0, 7 d",≥99.99%
same,% Intact of [^89Zr]Zr-Complex (n = 3),"[1]; EDTA 500-fold, pH 5.0, 0 h",≥99.99%
same,% Intact of [^89Zr]Zr-Complex (n = 3),"[1]; EDTA 500-fold, pH 5.0, 1 d",≥99.99%
same,% Intact of [^89Zr]Zr-Complex (n = 3),"[1]; EDTA 500-fold, pH 5.0, 3 d",≥99.99%
same,% Intact of [^89Zr]Zr-Complex (n = 3),"[1]; EDTA 500-fold, pH 5.0, 5 d",≥99.99%
same,% Intact of [^89Zr]Zr-Complex (n = 3),"[1]; EDTA 500-fold, pH 5.0, 7 d",≥99.99%
same,% Intact of [^89Zr]Zr-Complex (n = 3),"[1]; EDTA 500-fold, pH 7.0, 0 h",≥99.99%
same,% Intact of [^89Zr]Zr-Complex (n = 3),"[1]; EDTA 500-fold, pH 7.0, 1 d",≥99.99%
same,% Intact of [^89Zr]Zr-Complex (n = 3),"[1]; EDTA 500-fold, pH 7.0, 3 d",≥99.99%
same,% Intact of [^89Zr]Zr-Complex (n = 3),"[1]; EDTA 500-fold, pH 7.0, 5 d",≥99.99%
same,% Intact of [^89Zr]Zr-Complex (n = 3),"[1]; EDTA 500-fold, pH 7.0, 7 d",≥99.99%
same,% Intact of [^89Zr]Zr-Complex (n = 3),"[1]; EDTA 1000-fold, pH 5.0, 0 h",≥99.99%
same,% Intact of [^89Zr]Zr-Complex (n = 3),"[1]; EDTA 1000-fold, pH 5.0, 1 d",≥99.99%
same,% Intact of [^89Zr]Zr-Complex (n = 3),"[1]; EDTA 1000-fold, pH 5.0, 3 d",≥99.99%
same,% Intact of [^89Zr]Zr-Complex (n = 3),"[1]; EDTA 1000-fold, pH 5.0, 5 d",≥99.99%
same,% Intact of [^89Zr]Zr-Complex (n = 3),"[1]; EDTA 1000-fold, pH 5.0, 7 d",≥99.99%
same,% Intact of [^89Zr]Zr-Complex (n = 3),"[1]; EDTA 1000-fold, pH 7.0, 0 h",≥99.99%
same,% Intact of [^89Zr]Zr-Complex (n = 3),"[1]; EDTA 1000-fold, pH 7.0, 1 d",≥99.99%
same,% Intact of [^89Zr]Zr-Complex (n = 3),"[1]; EDTA 1000-fold, pH 7.0, 3 d",≥99.99%
same,% Intact of [^89Zr]Zr-Complex (n = 3),"[1]; EDTA 1000-fold, pH 7.0, 5 d",≥99.99%
same,% Intact of [^89Zr]Zr-Complex (n = 3),"[1]; EDTA 1000-fold, pH 7.0, 7 d",≥99.99%
same,Biodistribution (%ID/g) Blood,[2]; 2 h p.i.,0.011 ± 0.001 %ID/g
same,Biodistribution (%ID/g) Bone,[2]; 2 h p.i.,0.032 ± 0.006 %ID/g
same,Biodistribution (%ID/g) Fat,[2]; 2 h p.i.,0.007 ± 0.003 %ID/g
same,Biodistribution (%ID/g) Heart,[2]; 2 h p.i.,0.021 ± 0.003 %ID/g
same,Biodistribution (%ID/g) Kidney,[2]; 2 h p.i.,1.053 ± 0.071 %ID/g
same,Biodistribution (%ID/g) Large intestine,[2]; 2 h p.i.,0.523 ± 0.112 %ID/g
same,Biodistribution (%ID/g) Liver,[2]; 2 h p.i.,0.238 ± 0.020 %ID/g
same,Biodistribution (%ID/g) Lung,[2]; 2 h p.i.,0.071 ± 0.006 %ID/g
same,Biodistribution (%ID/g) Muscle,[2]; 2 h p.i.,0.008 ± 0.003 %ID/g
same,Biodistribution (%ID/g) Pancreas,[2]; 2 h p.i.,0.011 ± 0.003 %ID/g
same,Biodistribution (%ID/g) Small intestine,[2]; 2 h p.i.,0.229 ± 0.039 %ID/g
same,Biodistribution (%ID/g) Spleen,[2]; 2 h p.i.,0.078 ± 0.008 %ID/g
same,Biodistribution (%ID/g) Stomach,[2]; 2 h p.i.,0.069 ± 0.008 %ID/g
same,Biodistribution (%ID/g) Blood,[2]; 4 h p.i.,0.008 ± 0.001 %ID/g
same,Biodistribution (%ID/g) Bone,[2]; 4 h p.i.,0.024 ± 0.004 %ID/g
same,Biodistribution (%ID/g) Fat,[2]; 4 h p.i.,0.006 ± 0.002 %ID/g
same,Biodistribution (%ID/g) Heart,[2]; 4 h p.i.,0.019 ± 0.004 %ID/g
same,Biodistribution (%ID/g) Kidney,[2]; 4 h p.i.,0.689 ± 0.086 %ID/g
same,Biodistribution (%ID/g) Large intestine,[2]; 4 h p.i.,0.632 ± 0.088 %ID/g
same,Biodistribution (%ID/g) Liver,[2]; 4 h p.i.,0.123 ± 0.017 %ID/g
same,Biodistribution (%ID/g) Lung,[2]; 4 h p.i.,0.060 ± 0.005 %ID/g
same,Biodistribution (%ID/g) Muscle,[2]; 4 h p.i.,0.004 ± 0.002 %ID/g
same,Biodistribution (%ID/g) Pancreas,[2]; 4 h p.i.,0.010 ± 0.004 %ID/g
same,Biodistribution (%ID/g) Small intestine,[2]; 4 h p.i.,0.080 ± 0.007 %ID/g

# — paper PMC12566511, “The Evaluation of (1R,4R,7R,10R)-α,α′,α″,α‴-Tetramethyl-1,4,7,10-tetraazacyclododecane-1,4,7,10-tetraacetic Acid (DOTMA) as a Chelator for Zirconium-89” (Molecules, 2025)
